Results taken from PMC6127852 (Journal of Enzyme Inhibition and Medicinal Chemistry, 2018).
Converted amounts (≈) assume the structure as drawn.

Assays:
E. coli ATCC 25925 = assay: Broth microdilution MIC, E. coli ATCC 25925; type: cell-based; conditions: Escherichia coli, ATCC25925; Table S2
Protocol: (§1) The compounds were evaluated for their in vitro anti-bacterial activity against Gram-positive bacteria: S. aureus (ATCC 25923), MRSA, methicillin-sensitive S. aureus (MSSA), E. faecalis, vancomycin-resistant E. faecium (VREF), and Gram-negative bacteria: E. coli (ATCC 25925), P. aeruginosa (ATCC 27853), A. baumannii (ATCC 19606) and ESBL-producing K. pneumoniae (ATCC 27736). Standard broth microdilution method as recommended in guidelines of Clinical and Laboratory Standards Institute[61] ^, [65] ^, [66] was applied and the minimum inhibitory concentration (MIC) of compounds was tested. In short, testing was performed in U-bottomed 96-well sterile plastic microdilution trays (Falcon 3077, Becton Dickinson Labware, Franklin Lakes, NJ) in cation (Ca^2+ and Mg^2+) adjusted Mueller–Hinton broth medium (Becton Dickinson and Co., Cockeysville, MD). All testings were performed in triplicate.
(§2) The in vitro anti-bacterial activity of 5-amidinobenzimidazoles 7a–7e, 8a–8e, and 9a–9e was tested against Gram-positive bacteria including S. aureus (ATCC 25923), Enterococcus faecalis (ATCC 29212), and Gram-negative bacteria including E. coli (ATCC 25925), K. pneumoniae (ATCC 700803), P. aeruginosa (ATCC 27853), and Acinetobacter baumannii (ATCC 19606).

P. aeruginosa ESBL = assay: Broth microdilution MIC, ESBL P. aeruginosa clinical strain; type: cell-based; conditions: Pseudomonas aeruginosa
K. pneumoniae ESBL = assay: Broth microdilution MIC, ESBL K. pneumoniae clinical strain; type: cell-based; conditions: Klebsiella pneumoniae
Protocol: as §1

E. coli ESBL = assay: Broth microdilution MIC, ESBL E. coli clinical strain; type: cell-based; conditions: Escherichia coli
P. aeruginosa ATCC 27853 = assay: Broth microdilution MIC, P. aeruginosa ATCC 27853; type: cell-based; conditions: Pseudomonas aeruginosa, ATCC27853; Table S2
Protocol: as §1, §2

[1] = system: bloodstream form T. brucei (strain 221); assay: Anti-trypanosomal screening, resazurin; type: cell-based; conditions: Trypanosoma brucei, mean of triplicate ± SEM
Protocol: Bloodstream form T. brucei (strain 221) were cultured in modified Iscove’s medium, as outlined[67] and trypanocidal assays were performed using 96-well microtitre plates. […] Resazurin was added after 48 h, the plates incubated for a further 16 h, and then read in a Spectramax plate reader (Molecular Devices Corporation, San Jose, CA). The data were analysed using GraphPad Prism (GraphPad, La Jolla, CA). Each drug concentration was tested in triplicate.

K. pneumonia ATCC 700803 = assay: Broth microdilution MIC, K. pneumoniae ATCC 700803; type: cell-based; conditions: Klebsiella pneumoniae, ATCC700803; Table S2
Protocol: as §1, §2

[2] = system: polyA-polyU (RNA, polymer) A/U; assay: UV melting at 260 nm; conditions: PBS, I = 0.05 M, cations not specified, pH 7, r = 0.3 [compound]/[polynucleotide], error ±0.5, per base
ctDNA = assay: Thermal melting (ΔTm) of ctDNA; type: binding, calf; conditions: PBS, pH 7
Protocol: (§3) T m experiments were conducted with a Perkin Elmer Lambda 25 spectrophotometer in 1 cm quartz cuvettes. The absorbance of the DNA/RNA-compound complex was monitored at 260 nm as a function of temperature. The absorbance of the ligands was subtracted from every curve, and the absorbance scale was normalised. The ΔT m values were calculated by subtracting T m of the free nucleic acid from T m of the complex. Every reported ΔT m value was the average of at least two measurements. The error of ΔT m is ±0.5 °C. All data were graphed and analysed using Origin software version 9.0.
(§4) Denaturation experiments were carried out at different amounts of the compounds (r = 0.1, 0.3, 0.5, and 0.7 eq; r = [compound]/[polynucleotide]) with ctDNA and polyA-polyU.

S. aureus MRSA = assay: Broth microdilution MIC, MRSA clinical strain; type: cell-based; conditions: Staphylococcus aureus, antibiotic-resistant clinical strain
Protocol: as §1

[3] = system: polyG-polyC (polyC-polyG) (RNA, polymer) G/C; assay: UV-Vis titration, Scatchard; conditions: PBS, I = 0.05 M (Table 1 says I = 0.015 M), cations not specified, I = 0.015 M (Methods: 0.05 M), pH 7, n fixed, per base
E. faecium VRE = assay: Broth microdilution MIC, VRE clinical strain; type: cell-based; conditions: Enterococcus faecium
Protocol: as §1

polyA-polyU [4] = assay: UV–Vis titration with polyA-polyU (Scatchard); type: binding; conditions: PBS, pH 7
Protocol: (§5) Polynucleotides were purchased as follows: polyG–polyC, polyA–polyU (Sigma-Aldrich, St. Louis, MO), calf thymus ctDNA (Aldrich). Polynucleotides were dissolved in PBS buffer, I = 0.05 mol dm^−3, pH 7.0. The calf thymus ctDNA was additionally sonicated and filtered through a […] filter. The polynucleotide concentration was spectroscopically determined as the concentration of nucleobases.
(§6) All UV–Vis absorbance measurements were conducted on a Perkin Elmer Lambda 25 spectrophotometer (Perkin Elmer, Waltham, MA). A quartz cell with a 1 cm path length was used for all absorbance studies. Compound stock solutions were 1 mM. The DNA/RNA at increasing ratios was then titrated into the compound buffer solution (1.48 × 10^−5 mol dm^−3) and the corresponding absorption spectra were recorded under the same conditions. All data were graphed and analysed using Origin software version 9.0 (OriginLab Corporation, Northampton, MA). The stability constants (Ks) and [bound compound]/[polynucleotide phosphate] ratios (n) were calculated according to the Scatchard Equation[63] ^, [64]. Values for Ks and n given in Table 1 all have satisfying correlation coefficients (0.99).
(§7) The binding constants logKs and the density of the binding sites n were calculated using Scatchard plot analysis. In addition, the binding constants Ks for compounds 8b and 8e were calculated only for titration data taken at the r ≥ 0.1, because below that ratio changes in absorption maxima were too small for accurate calculation (ΔA ≤ 0.04) (Table 1). The binding constants Ks and ratios n obtained by processing UV–Vis titration data using the Scatchard equation are summarised in Table 1.

[5] = system: polyA-polyU (RNA, polymer) A/U; assay: UV-Vis titration, Scatchard; conditions: PBS, I = 0.05 M (Table 1 says I = 0.015 M), cations not specified, I = 0.015 M (Methods: 0.05 M), pH 7, per base
polyC-polyG = assay: UV–Vis titration with polyC-polyG (Scatchard); type: binding; conditions: binding constant, Scatchard, PBS, pH 7
Protocol: as §5, §6, §7

calf thymus ctDNA = assay: UV–Vis titration with ctDNA (Scatchard); type: binding; conditions: PBS, pH 7
Protocol: as §5, §6, §7

S. aureus MSSA = assay: Broth microdilution MIC, MSSA clinical strain; type: cell-based; conditions: Staphylococcus aureus
Protocol: as §1

polyA-polyU [6] = assay: Thermal melting (ΔTm) of polyA-polyU; type: binding
Protocol: as §3, §4

E. faecalis ATCC 29212 = assay: Broth microdilution MIC, E. faecalis ATCC 29212; type: cell-based; conditions: Enterococcus faecalis, ATCC29212; Table S2
Protocol: as §1, §2

A. baumannii ATCC 19606 = assay: Broth microdilution MIC, A. baumannii ATCC 19606; type: cell-based; conditions: Acinetobacter baumannii, ATCC19606; Table S2
Protocol: as §1, §2

S. aureus ATCC 25923 = assay: Broth microdilution MIC, S. aureus ATCC 25923; type: cell-based; conditions: Staphylococcus aureus, ATCC25923; Table S2
Protocol: as §1, §2

[7] = UV–Vis titration, calculated by Scatchard equation

`CC(C)(O/N=C(\C(=O)N[C@@H]1C(=O)N2C(C(=O)[O-])=C(C[n+]3ccccc3)CS[C@H]12)c1csc(N)n1)C(=O)O` [Ceftazidime, ceftazidime, reference compound] was tested, and the MIC (E. coli ATCC 25925) was 0.5 µg/mL (≈ 0.915 µM), the MIC (P. aeruginosa ESBL) was 32 µg/mL (≈ 58.5 µM) and the MIC (K. pneumoniae ESBL) was greater than 128 µg/mL. For the same compound, the MIC (E. coli ESBL) was 8 µg/mL (≈ 14.6 µM) and the MIC (P. aeruginosa ATCC 27853) was 4 µg/mL (≈ 7.32 µM).

With `N=C(N)c1ccc2[nH]c(-c3ccc(OCc4cn(-c5ccccc5)nn4)cc3)nc2c1` [Compound 7a] the IC50 [1] was 8.6 ± 0.5 µM, the IC90 [1] was 16.2 ± 0.9 µM and the MIC (E. coli ATCC 25925) was 32 µg/mL (≈ 78.2 µM). The MIC (K. pneumonia ATCC 700803) was 128 µg/mL (≈ 313 µM), the ΔTm [2] was 1.74 °C and the “ΔTm, ctDNA, r = 0.5” value (ctDNA; r = 0.5) was 4.84 °C. For the same compound, the “ΔTm, ctDNA, r = 0.7” value (ctDNA; r = 0.7) was 4.69 °C, the “ΔTm, ctDNA, r = 0.3” value (ctDNA; r = [compound]/[polynucleotide] 0.3, error ±0.5 °C) was 2.46 °C and the MIC (S. aureus MRSA) was 16 µg/mL (≈ 39.1 µM). For the same compound, the “log Ks” value [3] was 6.44, the MIC (P. aeruginosa ESBL) was 128 µg/mL (≈ 313 µM) and the MIC (E. faecium VRE) was 32 µg/mL (≈ 78.2 µM). The “Hypochromic effect H/%, polyA-polyU” value (polyA-polyU [4]; [7]) was 19.3%, the “log Ks, polyA-polyU” value (polyA-polyU [4]; binding constant, Scatchard) was 5.24 and the MIC (K. pneumoniae ESBL) was 8 µg/mL (≈ 19.5 µM). The “log Ks” value [5] was 5.24, the MIC (E. coli ESBL) was 4 µg/mL (≈ 9.77 µM) and the “log Ks, polyC-polyG” value (polyC-polyG) was 6.44. The “Hypochromic effect H/%, ctDNA” value (calf thymus ctDNA; [7]) was 7.8%, the “log Ks, ctDNA” value (calf thymus ctDNA; binding constant, Scatchard) was 6.76 and the MIC (P. aeruginosa ATCC 27853) was 128 µg/mL (≈ 313 µM). For the same compound, the MIC (S. aureus MSSA) was 32 µg/mL (≈ 78.2 µM), the “ΔTm, polyA-polyU, r = 0.1” value (polyA-polyU [6]; r = 0.1, PBS, pH 7) was 1.74 °C and the “ΔTm, polyA-polyU, r = 0.3” value (polyA-polyU [6]; r = 0.3, first melting midpoint) was 1.74 °C. For the same compound, the “ΔTm, polyA-polyU, r = 0.5” value (polyA-polyU [6]; r = 0.5, first melting midpoint) was 2.53 °C, the MIC (E. faecalis ATCC 29212) was 64 µg/mL (≈ 156 µM) and the MIC (A. baumannii ATCC 19606) was greater than 256 µg/mL. The MIC (S. aureus ATCC 25923) was 32 µg/mL (≈ 78.2 µM).
